Assay results as given in ChEMBL document CHEMBL1132754, “Photosensitizers related to purpurin-18-N-alkylimides: a comparative in vivo tumoricidal ability of ester versus amide functionalities” (Bioorg Med Chem Lett, 2000).

How the values were obtained:
[1] = Partition coefficient (logP); type: physicochemical; details: octanol/water
Mus musculus [2] = assay: The in vivo tumor uptake was determined by reflectance spectroscopy in mouse; type: functional
Mus musculus [3] = assay: Tumor versus muscle uptake ratio in mice (implanted with RIFtumor)by in vivo reflectance spectroscopy at 5 min, 24 hr and 48 hr post injection (5.0 umol/kg); type: functional, Muscle tissue
Mus musculus [4] = assay: Percent tumor response in mice (implanted with RIF tumor) on day 7 at 24 hours post injection (1.0 umol/kg); type: functional
Mus musculus [5] = assay: Photodynamic therapy response in mice (implanted with RIF tumor) on day 10 after administering the compound (0.4 umol/kg); Complete response; type: functional, organism-based
Mus musculus [6] = assay: Photodynamic therapy response in mice (implanted with RIF tumor)after administering the compound (0.4 umol/kg); Decreased; type: functional, organism-based
Mus musculus [7] = assay: Photodynamic therapy response in mice (implanted with RIF tumor) on day 20 after administering the compound (0.4 umol/kg); type: functional
Mus musculus [8] = assay: Photodynamic therapy response in mice (implanted with RIF tumor) on day 15 after administering the compound (0.4 umol/kg); type: functional
Mus musculus [9] = assay: Percent tumor response in mice (implanted with RIF tumor) on day 30 after administering the compound (1.0 umol/kg); type: functional
Mus musculus [10] = assay: Photodynamic therapy response in mice (implanted with RIF tumor) on day 25 after administering the compound (0.4 umol/kg);Tumor regrowth; type: functional, organism-based

| Compound | logP [1] | Tumor uptake (Mus musculus [2]) [µM/kg] | Ratio (Mus musculus [3]) | Tumor response (Mus musculus [4]) [%] | Response (Mus musculus [5]) | Response (Mus musculus [6]) | Response (Mus musculus [7]) [%] | Response (Mus musculus [8]) [%] | Response (Mus musculus [9]) [%] | Response (Mus musculus [10]) |
| --- | --- | --- | --- | --- | --- | --- | --- | --- | --- | --- |
| CCCCCCCCOC(C)C1=C(C)c2cc3nc(c4c5[nH]c(cc6[nH]c(cc1n2)c(C)c6CC)c(C)c5C(=O)N(CCCCCC)C4=O)[C@@H](CCC(=O)OC)[C@@H]3C (stereo partly specified) | 11.3 | 15.7 | 2.9 | 10 | – | – | – | – | – | – |
| CCCCCCCCCCOC(C)C1=C(C)c2cc3nc(c4c5[nH]c(cc6[nH]c(cc1n2)c(C)c6CC)c(C)c5C(=O)N(CCCCCC)C4=O)[C@@H](CCC(=O)OC)[C@@H]3C (stereo partly specified) | – | 4.2 | 3.23 | 100 | – | – | – | – | – | – |
| CCCCCCN1C(=O)c2c3nc(cc4nc(cc5[nH]c(cc6[nH]c2c(c6C)C1=O)c(CC)c5C)C(C(C)OCCCC)=C4C)[C@@H](C)[C@@H]3CCC(=O)OC (stereo partly specified) | 9.3 | 12.9 | 2.22 | 100 | – | – | – | – | – | – |
| CCCCCCNC(=O)CC[C@@H]1c2nc(cc3[nH]c(cc4[nH]c(cc5nc6c2C(=O)N(CCCCCC)C(=O)C6=C5C)c(CC)c4C)c(C(C)OCCC)c3C)[C@H]1C (stereo partly specified) | 10.3 | 7 | 2.69 | 67 | – | – | – | – | – | – |
| CCCCCCOC(C)C1=C(C)c2cc3nc(c4c5[nH]c(cc6[nH]c(cc1n2)c(C)c6CC)c(C)c5C(=O)N(CCCCCC)C4=O)[C@@H](CCC(=O)OC)[C@@H]3C (stereo partly specified) | 10.3 | 7.27 | 8 | 100 | Complete response | Complete response | 60 | 80 | 100 | Complete response |
| CCCCCCNC(=O)CC[C@@H]1c2nc(cc3[nH]c(cc4[nH]c(cc5nc6c2C(=O)N(CCCCCC)C(=O)C6=C5C)c(CC)c4C)c(C(C)OC)c3C)[C@H]1C (stereo partly specified) | 9.3 | 6.4 | 4.35 | 0 | – | – | – | – | – | – |
| CCCCCCNC(=O)CC[C@@H]1c2nc(cc3[nH]c(cc4[nH]c(cc5nc6c2C(=O)N(CCCCCC)C(=O)C6=C5C)c(CC)c4C)c(C(C)OCCCCC)c3C)[C@H]1C (stereo partly specified) | 11.3 | 7.33 | 3.32 | 20 | – | – | – | – | – | – |
| CCCCCCCOC(C)C1=C(C)c2cc3nc(c4c5[nH]c(cc6[nH]c(cc1n2)c(C)c6CC)c(C)c5C(=O)N(CCCCCC)C4=O)[C@@H](CCC(=O)NCCCCCC)[C@@H]3C (stereo partly specified) | – | 6.58 | 3.59 | 50 | – | – | – | – | – | – |
